Calls of active or inactive are those of the source. No cut-off for these calls is given here.
Key:
[1] = target: Signal transducer and activator of transcription 3 (Homo sapiens) (UniProt P40763); test: Inhibition of STAT3 in human HeLa cells at 5 uM after 24 hrs by luciferase reporter gene assay; type: cell-based
[2] = target: Signal transducer and activator of transcription 3 (Homo sapiens) (UniProt P40763); test: Inhibition of STAT3 in human HeLa cells after 24 hrs by luciferase reporter gene assay; type: cell-based

Chain of Signal transducer and activator of transcription 3 (Homo sapiens) (P40763 whole entry): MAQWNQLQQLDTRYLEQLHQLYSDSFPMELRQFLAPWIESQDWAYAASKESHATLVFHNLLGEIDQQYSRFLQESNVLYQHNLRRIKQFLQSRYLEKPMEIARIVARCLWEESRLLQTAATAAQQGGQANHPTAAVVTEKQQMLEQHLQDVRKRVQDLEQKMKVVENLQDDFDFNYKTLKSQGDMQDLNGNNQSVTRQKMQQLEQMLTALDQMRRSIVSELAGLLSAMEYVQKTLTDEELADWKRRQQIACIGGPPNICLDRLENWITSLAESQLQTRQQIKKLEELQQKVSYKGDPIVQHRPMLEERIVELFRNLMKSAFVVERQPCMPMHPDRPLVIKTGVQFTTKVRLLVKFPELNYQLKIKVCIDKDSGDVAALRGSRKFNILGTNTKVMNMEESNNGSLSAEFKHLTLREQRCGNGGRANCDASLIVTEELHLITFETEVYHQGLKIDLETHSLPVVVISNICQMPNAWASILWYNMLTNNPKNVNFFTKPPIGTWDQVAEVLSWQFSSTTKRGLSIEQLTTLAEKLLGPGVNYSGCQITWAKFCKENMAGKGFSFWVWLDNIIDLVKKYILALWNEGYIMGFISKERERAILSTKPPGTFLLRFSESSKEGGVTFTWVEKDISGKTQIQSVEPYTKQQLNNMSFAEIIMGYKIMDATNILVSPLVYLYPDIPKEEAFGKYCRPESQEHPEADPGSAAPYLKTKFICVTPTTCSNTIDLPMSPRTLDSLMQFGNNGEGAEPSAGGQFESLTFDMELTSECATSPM

inhibition [1] | inhibition [2] | SMILES
inactive |  | CCOC(=O)c1c(CSc2ccccc2)n(C)c2cc(Br)c(O)c(CN(C)C)c12
 | inactive | COc1ccc(-c2cc(=O)c3c(O)cc(O[C@@H]4O[C@H](CO[C@@H]5O[C@@H](C)[C@H](O)[C@@H](O)[C@H]5O)[C@@H](O)[C@H](O)[C@H]4O)cc3o2)cc1O

From ChEMBL document CHEMBL1687697 (ACS Med Chem Lett, 2010)
